Target: T1, SpIH (Strongylocentrotus purpuratus, UniProt O76977)
T1 sequence (O76977 1-767): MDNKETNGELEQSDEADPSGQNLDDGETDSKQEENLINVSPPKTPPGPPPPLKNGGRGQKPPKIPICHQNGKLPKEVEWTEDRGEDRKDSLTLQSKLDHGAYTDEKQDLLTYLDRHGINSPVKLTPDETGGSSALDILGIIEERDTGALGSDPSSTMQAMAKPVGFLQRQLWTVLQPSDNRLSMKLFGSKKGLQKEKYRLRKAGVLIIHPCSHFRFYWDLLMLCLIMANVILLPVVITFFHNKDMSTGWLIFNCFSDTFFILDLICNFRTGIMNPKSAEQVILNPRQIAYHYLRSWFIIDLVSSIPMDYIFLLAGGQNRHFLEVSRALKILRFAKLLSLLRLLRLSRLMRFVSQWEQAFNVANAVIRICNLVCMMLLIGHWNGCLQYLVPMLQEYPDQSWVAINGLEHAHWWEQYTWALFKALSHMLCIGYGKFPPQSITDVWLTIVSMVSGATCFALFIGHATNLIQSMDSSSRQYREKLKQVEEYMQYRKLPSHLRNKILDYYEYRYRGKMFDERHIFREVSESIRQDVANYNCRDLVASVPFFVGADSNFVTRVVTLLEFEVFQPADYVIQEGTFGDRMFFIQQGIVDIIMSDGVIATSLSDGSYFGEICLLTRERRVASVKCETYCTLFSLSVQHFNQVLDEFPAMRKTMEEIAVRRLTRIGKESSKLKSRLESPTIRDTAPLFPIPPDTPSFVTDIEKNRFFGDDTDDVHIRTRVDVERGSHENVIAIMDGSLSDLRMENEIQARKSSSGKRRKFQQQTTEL
Format: cell-based

IC50: 13.6 µM
Compound: CCCCCCCC(=O)OC[C@H](COP(=O)(O)O[C@H]1[C@H](O)[C@@H](O)[C@H](OP(=O)(O)O)[C@@H](O)[C@H]1O)OC(=O)CCCCCCC [diC8-PIP]

— article PMC3083228 (The Journal of Biological Chemistry, 2011)
